From patent publication US9175283B2, “Use polysaccharides for promotion of enzymatic activity” (Genzyme Corporation, priority 2006, dated 2015)

Test system: sialidase, β-galactosidase, and β-hexosaminidase
Assay: Promotion of Target Enzyme activity: oligosaccharide modification of column-bound GCR substrate, FACE assay
Assay type: biochemical
Conditions: pH 5.7; for % Modification (FACE Assay): additive at 10%, sialidase 210, β-galactosidase 33, β-hexosaminidase 2500 U/L sv, approx. 24 hours, room temperature; for Promotion of enzymatic activity of the Target Enzymes versus no additive (in words): additive concentrations of Table 9
Excerpt: The FACE assay is a preferred method of monitoring the enzymatic activity of the oligosaccharide/polysaccharide enzymes (such as the Target Enzymes in certain Examples herein) by determining the extent of modification of a substrate (including, but not limited to, a protein, glycoprotein or oligosaccharide) of a Target Enzyme(s). Using a FACE assay, a higher FACE number is indicative of a greater degree of modification and a greater degree of Target Enzyme(s) activity. The FACE assays are known in the art.
In the Examples herein, when the Target Enzymes were sialidase, β-galactosidase, and β-hexosaminidase, a FACE assay was used to determine the percentage of modified oligosaccharide species in the GCR substrate. Specifically, GCR was treated with N-glycanase (approximately 8 U of N-glycanase per 40 μg GCR) to release intact N-linked oligosaccharide chains. The released oligosaccharides were then labeled with the fluorophore: ANTS (8-aminonapthalene-1,3,6-trisulfonic acid and separated on oligosaccharide profiling gel (Glyko®/Prozyme®, San Leandro, Calif.) as per the manufacturers instructions. A dextran reference ladder standard (Glyko®)/Prozyme®, San Leandro, Calif.) was also run on the gel along with reference oligosaccharides, GlcNAc2(+Fuc)Man3 and GlcNAc2(-Fuc)Man3, Glyko®/Prozyme®, San Leandro, Calif.). Bands on the gel were then quantified by scanning the gel for fluorescence using a SE2000 imager system with fluorescence imaging software (Glyko®/Prozyme®, San Leandro, Calif.).
The ratio (%) of the fluorescent intensity of the bands representing two core structures, GlcNAc2(Fuc)Man3 and GlcNAc2Man3 (core structures), to the total intensity of bands with mobility ≦GlcNac2Man3 in a given lane provided the percentage of modified GCR. Since GCR acts as a substrate for the three Target Enzymes, sialidase, β-galactosidase, and β-hexosaminidase, the FACE results correlate to the activity of the Target Enzymes against GCR. For GCR, the FACE values can range from about 0 to about 100%, about 3% to about 90% and about 5% to about 85%.
HES was prepared as a 20% (w/v) stock solution by dissolving solid HES into buffer of the appropriate pH. For this Example, 100 mM sodium citrate, 5 mM calcium chloride, pH 5.7 buffer was used. The 20% […] stock solution was used to make a final concentration of 5% w/L sv HES in the Target Enzyme cocktails. […]
Target Enzyme cocktails containing three Target Enzymes were made by combining sialidase (210 U/L sv), β-galactosidase (33 U/L sv), β-hexosaminidase (2500 U/L sv), and either Hmxl (14 mL/L sv) or HES (5% w/L sv). […] The enzymatic activity of GCR is measured using standard assays (see, e.g., U.S. Pat. No. 6,451,600). […]

Structure (SMILES) | % Modification (FACE Assay) [%] | Promotion of enzymatic activity of the Target Enzymes versus no additive (in words)
OCC(O)CO [Glycerol, glycerol] | 34.2 | showed a diminution of Target Enzyme promotion
CC(O)CO (stereo not shown) [Propylene glycol, propylene glycol] | 51.1 | did not show Target Enzyme promotion
